# Results from patent US10544141B2, “Derivatives and methods of treating hepatitis B infections” (Novira Therapeutics, Inc., priority 2014, dated 2020).
# Test system: HBV
# Assay: HBV replication inhibition assay (BDNA assay) in HepG2.2.15 cells
# Assay type: cell-based
# Settings: 6 days treatment, encapsidated HBV DNA in supernatant by branched DNA QuantiGene assay
# Excerpt: HBV replication inhibition by the compounds of this invention could be determined in cells infected or transfected with HBV, or cells with stably integrated HBV, such as HepG2.2.15 cells (Sells et al. 1987). In this example, HepG2.2.15 cells were maintained in cell culture medium containing 10% fetal bovine serum (FBS), Geneticin, L-glutamine, penicillin and streptomycin. HepG2.2.15 cells could be seeded in 96-well plates at a density of 40,000 cells/well and be treated with serially diluted compounds at a final DMSO concentration of 0.5% either alone or in combination by adding drugs in a checker box format. Cells were incubated with compounds for three days, after which medium was removed and fresh medium containing compounds was added to cells and incubated for another three days. At day 6, supernatant was removed and treated with DNase at 37° C. for 60 minutes, followed by enzyme inactivation at 75° C. for 15 minutes. Encapsidated HBV DNA was released from the virions and covalently linked HBV polymerase by incubating in lysis buffer (Affymetrix QS0010) containing 2.5 μg proteinase K at 50° C. for 40 minutes. HBV DNA was denatured by addition of 0.2 M NaOH and detected using a branched DNA (BDNA) QuantiGene assay kit according to manufacturer recommendation (Affymetrix). HBV DNA levels could also be quantified using qPCR, based on amplification of encapsidated HBV DNA extraction with QuickExtraction Solution (Epicentre Biotechnologies) and amplification of HBV DNA using HBV specific PCR probes that can hybridize to HBV DNA and a fluorescently labeled probe for quantitation. In addition, cell viability of HepG2.2.15 cells incubated with test compounds alone or in combination was determined by using CellTitre-Glo reagent according to the manufacturer protocol (Promega). The mean background signal from wells containing only culture medium was subtracted from all other samples, and percent inhibition at each compound concentration was calculated by normalizing to signals from HepG2.2.15 cells treated with 0.5% DMSO using equation E1. % inhibition=(DMSOave−Xi)/DMSOave×100% E1: where DMSOave is the mean signal calculated from the wells that were treated with DMSO control (0% inhibition control) and Xi is the signal measured from the individual wells. EC50 values, effective concentrations that achieved 50% inhibitory effect, were determined by non-linear fitting using Graphpad Prism software (San Diego, Calif.) and equation E2 Y=Y min+(Y max−Y min)/(1+10(Log EC50−X)×HillSlope) E2: […]
# where Y represents percent inhibition values and X represents the logarithm of compound concentrations.
# Selected compounds of the invention were assayed in the HBV replication assay (BDNA assay), as described above and a representative group of these active compounds is shown in Table 3. […] In Table 3, “A” represents 0.01<EC50<0.10; “B” represents 0.10≤EC50<0.50; and “C” represents 0.50≤EC50<1.0; (‘+’ indicates >50% activity at 10 μM).
SMILES,EC50,HBV replication inhibition >50% at 10 μM (qualitative flag)
"C[C@H]1Cc2[nH]nc(C3CCCO3)c2CN1C(=O)Nc1ccc(F)c(Br)c1 (single isomer, unassigned) [967 D1]",10 to 100 nM,
"C[C@H]1Cc2[nH]nc(C3CCCO3)c2CN1C(=O)Nc1ccc(F)c(Br)c1 (single isomer, unassigned) [967 D2]",100 to 500 nM,
CC(C)(O)c1n[nH]c2c1CN(C(=O)Nc1cccc(Cl)c1)CC2 [Compound 238],,+ (‘+’ indicates >50% activity at 10 μM)
"O=C(Nc1cccc(Cl)c1)N1CCc2[nH]nc(O)c2C1 [Compound 241, N-(3-chlorophenyl)-3-hydroxy-1,4,6,7-tetrahydropyrazolo[4,3-c] pyridine-5-carboxamide]",,+ (‘+’ indicates >50% activity at 10 μM)
O=C(Nc1cccc(Cl)c1)N1CCc2[nH]nc(Br)c2C1 [Compound 260],,+ (‘+’ indicates >50% activity at 10 μM)
"CC(CO)c1n[nH]c2c1CN(C(=O)Nc1cccc(Cl)c1)CC2 (stereo not shown) [Compound 388, N-(3-chlorophenyl)-3-(2-hydroxy-1-methyl-ethyl)-1,4,6,7-tetrahydropyrazolo[4,3-c]pyridine-5-carboxamide]",,+ (‘+’ indicates >50% activity at 10 μM)

# Same assay, conditions: Hepatitis B virus, HepG2.2.15, 144 h, 6 days treatment, encapsidated HBV DNA in supernatant by branched DNA QuantiGene assay
row,SMILES,EC50
1,"C[C@H]1Cc2[nH]nc(C3CCCO3)c2CN1C(=O)Nc1cccc(Cl)c1 (single isomer, unassigned) [964 D1]",10 to 100 nM
2,"C[C@H]1Cc2[nH]nc(C3CCCO3)c2CN1C(=O)Nc1ccc(F)c(Cl)c1 (single isomer, unassigned) [965 D1]",10 to 100 nM
3,"C[C@H]1Cc2[nH]nc(C3CCCO3)c2CN1C(=O)Nc1cccc(Br)c1 (single isomer, unassigned) [966 D1]",10 to 100 nM
4,"C[C@H]1Cc2[nH]nc(C3CCCO3)c2CN1C(=O)Nc1ccnc(Br)c1F (single isomer, unassigned) [968 D1]",500 to 1000 nM
5,"C[C@H]1Cc2[nH]nc(C3CCCO3)c2CN1C(=O)Nc1ccc(F)c(C#N)c1 (single isomer, unassigned) [969 D1]",100 to 500 nM
6,"Cc1cccc(NC(=O)N2Cc3c(C4CCCO4)n[nH]c3C[C@@H]2C)c1 (single isomer, unassigned) [970 D1]",100 to 500 nM
7,"Cc1cc(NC(=O)N2Cc3c(C4CCCO4)n[nH]c3C[C@@H]2C)ccc1F (single isomer, unassigned) [971 D1]",10 to 100 nM
8,CC1Cc2[nH]nc(C3CCC3)c2CN1C(=O)Nc1ccnc(Br)c1F (stereo not shown) [760 S],100 to 500 nM
9,CC1Cc2[nH]nc(C3CCC3)c2CN1C(=O)Nc1cccc(C#N)c1F (stereo not shown) [761 R],100 to 500 nM
10,C[C@@H]1Cc2[nH]nc(C3CCCC3)c2CN1C(=O)Nc1cccc(Br)c1 [927 R],10 to 100 nM
11,C[C@H]1Cc2[nH]nc(C3CCCC3)c2CN1C(=O)Nc1cccc(Br)c1 [927 S],10 to 100 nM
12,C[C@@H]1Cc2[nH]nc(C3CCCC3)c2CN1C(=O)Nc1ccc(F)c(Br)c1 [928 R],10 to 100 nM
13,C[C@H]1Cc2[nH]nc(C3CCCC3)c2CN1C(=O)Nc1ccc(F)c(Br)c1 [928 S],10 to 100 nM
14,C[C@@H]1Cc2[nH]nc(C3CCCC3)c2CN1C(=O)Nc1ccnc(Br)c1F [929 R],10 to 100 nM
15,C[C@H]1Cc2[nH]nc(C3CCCC3)c2CN1C(=O)Nc1ccnc(Br)c1F [929 S],10 to 100 nM
16,C[C@@H]1Cc2[nH]nc(C3CCCC3)c2CN1C(=O)Nc1ccc(F)c(C#N)c1 [930 R],10 to 100 nM
17,C[C@H]1Cc2[nH]nc(C3CCCC3)c2CN1C(=O)Nc1ccc(F)c(C#N)c1 [930 S],10 to 100 nM
18,Cc1cc(NC(=O)N2Cc3c(C4CCCC4)n[nH]c3C[C@H]2C)ccc1F [931 R],10 to 100 nM
19,Cc1cc(NC(=O)N2Cc3c(C4CCCC4)n[nH]c3C[C@@H]2C)ccc1F [931 S],10 to 100 nM
20,C[C@@H]1Cc2[nH]nc(C3CCCC3)c2CN1C(=O)Nc1ccc(F)c(Cl)c1 [932 R],10 to 100 nM
21,C[C@H]1Cc2[nH]nc(C3CCCC3)c2CN1C(=O)Nc1ccc(F)c(Cl)c1 [932 S],10 to 100 nM
22,Cc1cccc(NC(=O)N2Cc3c(C4CCCC4)n[nH]c3C[C@H]2C)c1 [933 R],10 to 100 nM
23,Cc1cccc(NC(=O)N2Cc3c(C4CCCC4)n[nH]c3C[C@@H]2C)c1 [933 S],10 to 100 nM

row,SMILES,EC50
1,C[C@@H]1Cc2[nH]nc(C3CCCC3)c2CN1C(=O)Nc1cccc(Cl)c1 [934 R],10 to 100 nM
2,C[C@H]1Cc2[nH]nc(C3CCCC3)c2CN1C(=O)Nc1cccc(Cl)c1 [934 S],10 to 100 nM
3,C[C@H]1Cc2[nH]nc(C3CCCO3)c2CN1C(=O)Nc1ccc(F)c(Cl)c1 (stereo partly shown) [965 D2],10 to 100 nM
4,C[C@H]1Cc2[nH]nc(C3CCCO3)c2CN1C(=O)Nc1ccc(F)c(C#N)c1 (stereo partly shown) [969 D2],100 to 500 nM
5,Cc1cc(NC(=O)N2Cc3c(C4CCCO4)n[nH]c3C[C@@H]2C)ccc1F (stereo partly shown) [971 D2],100 to 500 nM
6,"O=C(Nc1cccc(Cl)c1)N1CCc2[nH]nc(C3CCCC3)c2C1 [Compound 264, N-(3-chlorophenyl)-3-cyclopentyl-1,4,6,7-tetrahydro pyrazolo[4,3-c]pyridine-5-carboxamide]",10 to 100 nM
7,CC(C)c1n[nH]c2c1CN(C(=O)Nc1cccc(Cl)c1)CC2 [Compound 267],100 to 500 nM
8,O=C(Nc1cccc(Cl)c1)N1CCc2[nH]nc(C3=CCOCC3)c2C1 [Compound 274],100 to 500 nM
9,O=C(Nc1cccc(Cl)c1)N1CCc2[nH]nc(C3CCOCC3)c2C1 [Compound 275],100 to 500 nM
10,C=C(C)c1n[nH]c2c1CN(C(=O)Nc1cccc(Cl)c1)CC2 [Compound 336],10 to 100 nM
11,"O=C(Nc1cccc(Cl)c1)N1CCc2[nH]nc(C3=CCCCC3)c2C1 [Compound 337, N-(3-chlorophenyl)-3-(cyclohexen-1-yl)-1,4,6,7-tetrahydro pyrazolo[4,3-c]pyridine-5-carboxamide]",10 to 100 nM
12,"O=C(Nc1cccc(Cl)c1)N1CCc2[nH]nc(C3=CCCC3)c2C1 [Compound 338, N-(3-chlorophenyl)-3-(cyclopenten-1-yl)-1,4,6,7-tetrahydropyrazolo[4,3-c]pyridine-5-carboxamide]",10 to 100 nM
13,"O=C(Nc1cccc(Cl)c1)N1CCc2[nH]nc(C3CC3)c2C1 [Compound 440, N-(3-chlorophenyl)-3-cyclopropyl-1,4,6,7-tetrahydropyrazolo[4,3-c]pyridine-5-carboxamide]",100 to 500 nM
14,CC1(c2n[nH]c3c2CN(C(=O)Nc2cccc(Cl)c2)CC3)CC1 [Compound 441],100 to 500 nM
15,"O=C(Nc1cccc(Cl)c1)N1CCc2[nH]nc(N3CCCC3)c2C1 [Compound 455, N-(3-chlorophenyl)-3-pyrrolidin-1-yl-1,4,6,7-tetrahydropyrazolo[4,3-c] pyridine-5-carboxamide]",100 to 500 nM
16,"CC(C)(C)c1n[nH]c2c1CN(C(=O)Nc1cccc(Cl)c1)CC2 [Compound 515, 3-tert-butyl-N-(3-chlorophenyl)-1,4,6,7-tetrahydropyrazolo[4,3-c]pyridine-5-carboxamide]",100 to 500 nM
17,"O=C(Nc1cccc(Cl)c1)N1CCc2[nH]nc(C34CCCC3C4)c2C1 (stereo not shown) [Compound 546, 3-(1-bicyclo[3.1.0]hexanyl)-N-(3-chlorophenyl)-1,4,6,7-tetrahydropyrazolo[4,3-c]pyridine-5-carboxamide]",10 to 100 nM
18,C=C(C)c1n[nH]c2c1CN(C(=O)Nc1ccnc(Cl)c1F)CC2 [Compound 547],100 to 500 nM
19,C=C(C)c1n[nH]c2c1CN(C(=O)Nc1cccc(Br)c1F)CC2 [Compound 548],10 to 100 nM
20,"C=C(C)c1n[nH]c2c1CN(C(=O)Nc1cccc(C)c1)CC2 [Compound 549, 3-isopropenyl-N-(m-tolyl)-1,4,6,7-tetrahydropyrazolo[4,3-c]pyridine-5-carboxamide]",100 to 500 nM
21,"O=C(Nc1cccc(Cl)c1)N1CCc2[nH]nc(C3CCC3)c2C1 [Compound 554, N-(3-chlorophenyl)-3-cyclobutyl-1,4,6,7-tetrahydropyrazolo[4,3-c]pyridine-5-carboxamide]",10 to 100 nM
22,"CCC(C)(C)c1n[nH]c2c1CN(C(=O)Nc1cccc(Cl)c1)CC2 [Compound 604, N-(3-chlorophenyl)-3-(1,1-dimethylpropyl)-1,4,6,7-tetrahydropyrazolo [4,3-c]pyridine-5-carboxamide]",100 to 500 nM
23,"CCCC(F)(F)c1n[nH]c2c1CN(C(=O)Nc1cccc(Cl)c1)CC2 [Compound 642, N-(3-chlorophenyl)-3-(1,1-difluorobutyl)-1,4,6,7-tetrahydropyrazolo[4,3-c]pyridine-5-carboxamide]",10 to 100 nM
